ChEMBL document CHEMBL4715854, “Discovery of Roblitinib (FGF401) as a Reversible-Covalent Inhibitor of the Kinase Activity of Fibroblast Growth Factor Receptor 4” (J Med Chem, 2020)
≈ marks a conversion by molar mass, not a printed value.

What was measured:
[1] = Clearance in Sprague-Dawley rat at 0.5 mg/kg, iv or 3 mg/kg, po measured upto 24 hrs by LC-MS/MS analysis; type: ADME, organism-based; conditions: in vivo
[2] = Half life in human liver S9 fraction at 1 uM in presence of NADPH incubated upto 120 mins by LC-MS/MS analysis; type: ADME, subcellular
[3] = Clearance in human liver microsome at 10 mM measured after 15 mins in presence of NADPH by LC-MS analysis; type: ADME; conditions: liver microsomes, read-out: CLH
[4] = Clearance in mouse cryopreserved hepatocytes at 1 uM incubated from 1 to 80 mins by LC-MS/MS analysis; type: ADME, cell-based, Hepatocyte; conditions: time 1-80 min
[5] = Clearance in rat cryopreserved hepatocytes at 1 uM incubated from 1 to 80 mins by LC-MS/MS analysis; type: ADME, cell-based, Hepatocyte; conditions: time 1-80 min
[6] = Clearance in dog cryopreserved hepatocytes at 1 uM incubated from 1 to 80 mins by LC-MS/MS analysis; type: ADME, cell-based, Canis lupus familiaris, Hepatocyte; conditions: time 1-80 min
[7] = Clearance in human cryopreserved hepatocytes at 1 uM incubated from 1 to 80 mins by LC-MS/MS analysis; type: ADME, cell-based, Hepatocyte; conditions: time 1-80 min
[8] = Half life in mouse liver S9 fraction at 1 uM in presence of NADPH incubated upto 120 mins by LC-MS/MS analysis; type: ADME, subcellular
[9] = Half life in rat liver S9 fraction at 1 uM in presence of NADPH incubated upto 120 mins by LC-MS/MS analysis; type: ADME, subcellular
[10] = Half life in dog liver S9 fraction at 1 uM in presence of NADPH incubated upto 120 mins by LC-MS/MS analysis; type: ADME, subcellular, Canis lupus familiaris
[11] = Half life in mouse intestinal S9 fraction in presence of NADPH; type: ADME, subcellular, Intestine
[12] = Half life in rat intestinal S9 fraction in presence of NADPH; type: ADME, subcellular, Intestine
[13] = Half life in dog intestinal S9 fraction in presence of NADPH; type: ADME, subcellular, Canis lupus familiaris, Intestine; conditions: time 120 min
[14] = Half life in human intestinal S9 fraction in presence of NADPH; type: ADME, subcellular, Intestine
[15] = Half-life in Sprague-Dawley rat at 0.5 mg/kg, iv or 3 mg/kg, po measured upto 24 hrs by LC-MS/MS analysis; type: ADME, organism-based; conditions: in vivo
[16] = Dissociation constant, pKa of compound by potentiometric titration method; type: physicochemical
[17] = Oral bioavailability in Beagle dog at 0.3 mg/kg by LC-MS/MS analysis; type: ADME, organism-based, Canis lupus familiaris; conditions: in vivo
[18] = Half-life in Beagle dog at 0.1 mg/kg, iv or 0.3 mg/kg, po by LC-MS/MS analysis; type: ADME, organism-based, Canis lupus familiaris; conditions: in vivo
[19] = Volume of distribution at steady state in Beagle dog at 0.1 mg/kg, iv or 0.3 mg/kg, po by LC-MS/MS analysis; type: ADME, organism-based, Canis lupus familiaris; conditions: in vivo, read-out: Vdss
[20] = Clearance in Beagle dog at 0.1 mg/kg, iv or 0.3 mg/kg, po by LC-MS/MS analysis; type: ADME, organism-based, Canis lupus familiaris; conditions: in vivo
[21] = Volume of distribution at steady state in female Balb/c mouse at 1 mg/kg, iv or 3 mg/kg, po; type: ADME, organism-based; conditions: in vivo, read-out: Vdss
[22] = Apparent permeability of compound across basolateral to apical side in human Caco2 cells at 10 mM incubated for 120 mins by lucifer yellow based LC/MS/MS analysis; type: ADME, cell-based; conditions: Caco-2
[23] = Apparent permeability of compound across apical to basolateral side in human Caco2 cells at 10 mM incubated for 120 mins by lucifer yellow based LC/MS/MS analysis; type: ADME, cell-based; conditions: Caco-2
[24] = Volume of distribution at steady state in Crl:CD (SD) rat at 1 mg/kg, iv or 3 mg/kg, po measured upto 24 hrs by LC-MS/MS analysis; type: ADME, organism-based; conditions: in vivo, read-out: Vdss
[25] = Oral bioavailability in Crl:CD (SD) rat at 3 mg/kg measured upto 24 hrs by LC-MS/MS analysis; type: ADME, organism-based; conditions: Crl:CD (SD), in vivo
[26] = Thermodynamic solubility of compound in phosphate buffer at pH 6.8 measured after 15 mins by shake-flask method based LC-HRMS analysis; type: physicochemical; conditions: read-out: Therm_solubility
[27] = Half-life in female Balb/c mouse at 1 mg/kg, iv or 3 mg/kg, po; type: ADME, organism-based; conditions: in vivo
[28] = Oral bioavailability in female Balb/c mouse at 3 mg/kg; type: ADME, organism-based; conditions: in vivo
[29] = Cmax in mouse xenografted with human Huh-7 cells at 3 mg/kg, po BID administered for 8 days; type: ADME, organism-based; parameters: route oral, time 8 day, dose 3 mg/kg; conditions: in vivo
[30] = Clearance in dog liver microsome at 10 mM measured after 15 mins in presence of NADPH by LC-MS analysis; type: ADME, Canis lupus familiaris; conditions: liver microsomes, read-out: CLH
[31] = Clearance in rat liver microsome at 10 mM measured after 15 mins in presence of NADPH by LC-MS analysis; type: ADME; conditions: liver microsomes, read-out: CLH
[32] = Clearance in mouse liver microsome at 10 mM measured after 15 mins in presence of NADPH by LC-MS analysis; type: ADME; conditions: liver microsomes, read-out: CLH
[33] = AUC (0-48 hrs) in mouse xenografted with human Huh-7 cells at 12 mg/kg, po administered every other day for 8 days; type: ADME, organism-based; parameters: route oral, time 8 day, dose 12 mg/kg; conditions: in vivo
[34] = Cmax in mouse xenografted with human Huh-7 cells at 12 mg/kg, po administered every other day for 8 days; type: ADME, organism-based; parameters: route oral, time 8 day, dose 12 mg/kg; conditions: in vivo
[35] = AUC (0-48 hrs) in mouse xenografted with human Huh-7 cells at 6 mg/kg, po qd administered for 8 days; type: ADME, organism-based; parameters: route oral, time 8 day, dose 6 mg/kg; conditions: in vivo
[36] = Cmax in mouse xenografted with human Huh-7 cells at 6 mg/kg, po qd administered for 8 days; type: ADME, organism-based; parameters: route oral, dose 6 mg/kg, time 8 day; conditions: in vivo
[37] = AUC (0-48 hrs) in mouse xenografted with human Huh-7 cells at 3 mg/kg, po BID administered for 8 days; type: ADME, organism-based; parameters: route oral, dose 3 mg/kg, time 8 day; conditions: in vivo, 192 h
[38] = Drug absorption in Sprague-Dawley rat at 10 to 100 mg/kg, po qd for 10 days by LC-MS/MS analysis; type: ADME, organism-based; conditions: in vivo, 240 h, dose 10-100 mg/kg, time 10 day
[39] = Tmax in Sprague-Dawley rat at 10 to 100 mg/kg, po qd for 10 days by LC-MS/MS analysis; type: ADME, organism-based; conditions: in vivo, dose 10-100 mg/kg, time 10 day
[40] = AUC (0 to 24 hrs) in Crl:CD (SD) rat at 30 mg/kg, po qd treated for 1 day measured by LC-MS/MS analysis; type: ADME, organism-based; parameters: route oral, time 1 day, dose 30 mg/kg; conditions: in vivo
[41] = AUC (0 to 24 hrs) in Crl:CD (SD) rat at 100 mg/kg, po qd treated for 1 day measured by LC-MS/MS analysis; type: ADME, organism-based; parameters: route oral, time 1 day, dose 100 mg/kg; conditions: in vivo
[42] = AUC (0 to 24 hrs) in Crl:CD (SD) rat at 10 mg/kg, po qd treated for 1 day measured by LC-MS/MS analysis; type: ADME, organism-based; parameters: route oral, dose 10 mg/kg, time 1 day; conditions: in vivo
[43] = AUC (0 to 12 hrs) in C57BL/6 mouse at 30 mg/kg, po BID treated for 6 days measured by LC-MS/MS analysis; type: ADME, organism-based; parameters: route oral, dose 30 mg/kg, time 6 day; conditions: in vivo
[44] = AUC in Beagle dog at 0.1 mg/kg, iv by LC-MS/MS analysis; type: ADME, organism-based, Canis lupus familiaris; parameters: dose 0.1 mg/kg; conditions: in vivo
[45] = AUC in Beagle dog at 0.3 mg/kg, po by LC-MS/MS analysis; type: ADME, organism-based, Canis lupus familiaris; parameters: dose 0.3 mg/kg; conditions: in vivo
[46] = Half-life in C57BL/6 mouse at 0.5 mg/kg, iv measured up to 24 hrs by LC-MS/MS analysis; type: ADME, organism-based; conditions: in vivo
[47] = AUC in C57BL/6 mouse at 0.5 mg/kg, iv measured up to 24 hrs by LC-MS/MS analysis; type: ADME, organism-based; parameters: route intravenous, dose 0.5 mg/kg, time <=24; conditions: in vivo
[48] = Volume of distribution at steady state in C57BL/6 mouse at 0.5 mg/kg, iv measured up to 24 hrs by LC-MS/MS analysis; type: ADME, organism-based; conditions: in vivo, read-out: Vdss
[49] = Clearance in C57BL/6 mouse at 0.5 mg/kg, iv measured up to 24 hrs by LC-MS/MS analysis; type: ADME, organism-based; conditions: in vivo
[50] = Half-life in Crl:CD (SD) rat at 1 mg/kg, iv or 3 mg/kg, po measured upto 24 hrs by LC-MS/MS analysis; type: ADME, organism-based; conditions: in vivo
[51] = Clearance in Crl:CD (SD) rat at 1 mg/kg, iv or 3 mg/kg, po measured up to 24 hrs by LC-MS/MS analysis; type: ADME, organism-based; conditions: in vivo
[52] = Plasma concentration in mouse xenografted with human Huh7 cells at 30 mg/kg, po BID administered for 14 days measured 12 hrs post-last dose; type: ADME, organism-based; conditions: time 14 day
[53] = Dose normalized AUC in Crl:CD (SD) rat at 3 mg/kg, po measured up to 24 hrs by LC-MS/MS analysis; type: ADME, organism-based; conditions: in vivo
[54] = Dose normalized AUC in Crl:CD (SD) rat at 1 mg/kg, iv measured up to 24 hrs by LC-MS/MS analysis; type: ADME, organism-based; conditions: in vivo

COCCOc1cc(NC(=O)N2CCCc3cc(CN4CCN(C)CC4=O)c(C=O)nc32)ncc1C#N
clearance [1]: 19 mL/min/kg
half-life at 1 µM [2]: > 2 h
microsomal CLint at […], 10000 µM [3]: 29 µL/min/mg
CLH [4]: 2.5 µL/min/mg
CLH [5]: 11 µL/min/mg
CLH [6]: 6.5 µL/min/mg
CLH [7]: 5.7 µL/min/mg
half-life at 1 µM [8]: > 2 h
half-life at 1 µM [9]: > 2 h
half-life at 1 µM [10]: 0.867 h
half-life [11]: > 2 h
half-life [12]: > 2 h
half-life at 1 µM [13]: > 2 h
half-life [14]: > 2 h
half-life [15]: 4.4 h
pKa [16]: 5.3
bioavailability ([17]; Beagle): 69%
half-life [18]: 6.5 h
Vd [19]: 3 L/kg
clearance [20]: 8 mL/min/kg
Vd [21]: 2.3 L/kg
Papp B→A at 2 h, 10000 µM [22]: 11 ×10⁻⁶ cm/s
Papp A→B at 2 h, 10000 µM [23]: 7.4 ×10⁻⁶ cm/s
Vd [24]: 3.9 L/kg
bioavailability [25]: 20%
solubility thermodynamic at […] [26]: 16 µM (≈ 8.12 µg/mL)
half-life [27]: 1.4 h
F [28]: 20%
Cmax [29]: 180 nM
microsomal CLint at […], 10000 µM [30]: 34 µL/min/mg
microsomal CLint at […], 10000 µM [31]: 18 µL/min/mg
microsomal CLint at […], 10000 µM [32]: 18 µL/min/mg
AUC at 192 h [33]: 7.2 µM·h
Cmax [34]: 1260 nM
AUC at 192 h [35]: 5.2 µM·h
Cmax [36]: 770 nM
AUC [37]: 3.6 µM·h

CC(C)Oc1cc(NC(=O)N2CCCc3cc(CN4CCCC4=O)c(C=O)nc32)ncc1C#N
Drug absorption [38]: Active
Tmax [39]: 2 h
AUC at 24 h [40]: 5400 ng·h/mL
AUC at 24 h [41]: 18700 ng·h/mL
AUC at 24 h [42]: 2830 ng·h/mL
AUC at 144 h [43]: 8250 ng·h/mL
F ([17]; 0.3 mg/kg): 25%
AUC [44]: 20.082 µM·h
AUC [45]: 5.05 µM·h
half-life [18]: 8.1 h
Vd [19]: 1.1 L/kg
half-life [46]: 5.2 h
AUC at 24 h [47]: 4.54 µM·h
Vd [48]: 1.4 L/kg
clearance [49]: 8 mL/min/kg
half-life [50]: 14.2 h
Vd [24]: 7.2 L/kg
clearance [51]: 21 mL/min/kg
bioavailability [25]: 33%
solubility thermodynamic at […] [26]: < 6 µM
concentration at 336 h [52]: 500 nM
AUC/dose [53]: 587 nM·h
AUC/dose [54]: 1768 nM·h
